In ChEMBL document CHEMBL1201862, “PubChem BioAssay data set” (2004):
Active and inactive are the calls of the source.

Legend:
[1] = target: T1, Polyadenylate-binding protein 1 (Homo sapiens, UniProt P11940); experiment: MLLE binding blockers, Cy5 peptide tracer – biochemical, fluorescence polarization, Cy5-PAM2 peptide, secondary, miRNA deadenylation inhibitor project, dose response (AID 602260); type: functional; settings: read-out: IC50_Mean
[2] = target: T1, Polyadenylate-binding protein 1; experiment: MLLE domain peptide-binding blockers, IC50 – biochemical, fluorescence polarization, FITC-PAM2 peptide, dose response (AID 602259); type: functional; settings: read-out: IC50_Mean
[3] = target: T2, High affinity choline transporter 1 (Homo sapiens, UniProt Q9GZV3); experiment: human choline transporter blockers, potency – cell-based, 5-point CRC, membrane potential dye, dose response (AID 504840); type: functional
T2 sequence (Q9GZV3 whole entry): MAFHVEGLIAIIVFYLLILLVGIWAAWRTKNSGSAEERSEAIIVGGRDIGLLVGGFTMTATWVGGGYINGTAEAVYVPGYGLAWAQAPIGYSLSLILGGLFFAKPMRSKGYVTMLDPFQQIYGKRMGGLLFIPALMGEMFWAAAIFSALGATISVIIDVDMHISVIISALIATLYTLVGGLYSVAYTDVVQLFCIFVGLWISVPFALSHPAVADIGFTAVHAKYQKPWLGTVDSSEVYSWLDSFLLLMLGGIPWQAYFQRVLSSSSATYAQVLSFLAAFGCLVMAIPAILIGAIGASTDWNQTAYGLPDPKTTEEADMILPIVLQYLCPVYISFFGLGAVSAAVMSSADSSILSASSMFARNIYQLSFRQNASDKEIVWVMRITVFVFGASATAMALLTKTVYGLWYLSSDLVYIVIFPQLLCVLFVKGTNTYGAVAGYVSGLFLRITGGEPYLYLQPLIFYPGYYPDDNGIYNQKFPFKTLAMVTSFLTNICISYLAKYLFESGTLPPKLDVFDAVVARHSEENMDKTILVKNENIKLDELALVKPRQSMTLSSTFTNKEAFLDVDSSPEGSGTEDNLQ

[4] = target: T3, RNA-binding protein pos-1 (Caenorhabditis elegans, UniProt G5EF15); experiment: disruptors of C. elegans POS-1 RNA interaction – biochemical, fluorescence polarization, dose response (AID 1964);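 further: purified POS-1 fused to maltose binding protein made in E. coli; potency of compounds blocking POS-1 binding to fluorescent RNA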
T3 sequence (G5EF15 whole entry): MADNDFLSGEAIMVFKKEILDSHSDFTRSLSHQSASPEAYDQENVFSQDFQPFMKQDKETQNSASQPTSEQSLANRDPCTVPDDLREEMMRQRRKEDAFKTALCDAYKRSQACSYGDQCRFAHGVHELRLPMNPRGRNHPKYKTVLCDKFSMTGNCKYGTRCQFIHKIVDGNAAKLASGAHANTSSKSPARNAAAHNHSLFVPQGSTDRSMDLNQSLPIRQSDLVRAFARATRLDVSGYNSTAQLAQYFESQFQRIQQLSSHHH

[5] = target: T4, Zinc finger protein mex-5 (Caenorhabditis elegans, UniProt Q9XUB2); experiment: potency of MEX-5 RNA-binding blockers – biochemical, C. elegans, fluorescence polarization, dose response (AID 1960)
T4 sequence (Q9XUB2 whole entry): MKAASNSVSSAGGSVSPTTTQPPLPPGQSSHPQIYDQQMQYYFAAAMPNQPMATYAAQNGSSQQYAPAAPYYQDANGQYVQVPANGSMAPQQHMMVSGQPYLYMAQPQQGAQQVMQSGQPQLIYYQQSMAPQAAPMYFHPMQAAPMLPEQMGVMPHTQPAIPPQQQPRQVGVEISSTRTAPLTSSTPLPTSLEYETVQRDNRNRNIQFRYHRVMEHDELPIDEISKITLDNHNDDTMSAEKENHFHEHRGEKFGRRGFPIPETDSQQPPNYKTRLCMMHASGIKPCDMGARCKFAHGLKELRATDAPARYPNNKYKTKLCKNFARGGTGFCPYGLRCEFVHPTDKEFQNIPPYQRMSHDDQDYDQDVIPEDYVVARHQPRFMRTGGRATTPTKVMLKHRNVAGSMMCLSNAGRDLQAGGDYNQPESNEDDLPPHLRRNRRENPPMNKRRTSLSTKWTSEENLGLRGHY

[6] = target: FAD-linked sulfhydryl oxidase ALR (Homo sapiens, UniProt P55789); experiment: ALR-catalysed DTT oxidation blockers – biochemical, H2O2 detection, luminescence, cherry-pick, dose response (AID 493248)
[7] = target: T5, Replicative DNA helicase DnaB (Mycobacterium tuberculosis, UniProt P9WMR3); experiment: DnaB intein splicing inhibitors, dose response, biochemical, cell-free fluorescence (AID 449749); type: functional
T5 sequence (P9WMR3 whole entry): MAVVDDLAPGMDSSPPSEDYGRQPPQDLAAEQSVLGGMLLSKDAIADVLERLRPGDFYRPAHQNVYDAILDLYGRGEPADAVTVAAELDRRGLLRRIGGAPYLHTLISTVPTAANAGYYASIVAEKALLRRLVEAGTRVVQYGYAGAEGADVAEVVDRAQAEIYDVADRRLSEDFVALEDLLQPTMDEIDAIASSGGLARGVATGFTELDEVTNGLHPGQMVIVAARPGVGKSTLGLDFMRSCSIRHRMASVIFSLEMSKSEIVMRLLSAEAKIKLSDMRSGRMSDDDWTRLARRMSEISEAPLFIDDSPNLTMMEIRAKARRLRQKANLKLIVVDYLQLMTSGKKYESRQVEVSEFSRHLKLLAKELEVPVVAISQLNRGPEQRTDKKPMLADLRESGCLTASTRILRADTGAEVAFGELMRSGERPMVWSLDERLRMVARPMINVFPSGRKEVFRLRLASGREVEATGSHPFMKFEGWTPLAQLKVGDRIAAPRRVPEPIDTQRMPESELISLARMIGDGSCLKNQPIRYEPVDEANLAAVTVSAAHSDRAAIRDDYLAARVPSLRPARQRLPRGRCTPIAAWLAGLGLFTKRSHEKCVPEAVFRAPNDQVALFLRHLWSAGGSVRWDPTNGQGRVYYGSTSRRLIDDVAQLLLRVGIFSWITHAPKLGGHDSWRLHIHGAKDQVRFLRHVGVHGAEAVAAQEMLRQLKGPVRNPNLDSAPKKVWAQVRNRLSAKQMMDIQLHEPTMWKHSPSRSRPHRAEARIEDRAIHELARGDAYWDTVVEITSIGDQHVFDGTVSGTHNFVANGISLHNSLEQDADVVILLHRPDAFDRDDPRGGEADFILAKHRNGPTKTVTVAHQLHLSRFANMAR

Protein RecA = target: T6, Protein RecA (Mycobacterium tuberculosis, UniProt P9WHJ3); experiment: Fluorescence Cell-Free Homogeneous Dose Retest to Identify Inhibitors of RecA-Intein Splicing Activity. [Related pubchem assays (depositor defined):AID2097, AID2223, AID489010, AID492950]; type: functional
T6 sequence (P9WHJ3 whole entry): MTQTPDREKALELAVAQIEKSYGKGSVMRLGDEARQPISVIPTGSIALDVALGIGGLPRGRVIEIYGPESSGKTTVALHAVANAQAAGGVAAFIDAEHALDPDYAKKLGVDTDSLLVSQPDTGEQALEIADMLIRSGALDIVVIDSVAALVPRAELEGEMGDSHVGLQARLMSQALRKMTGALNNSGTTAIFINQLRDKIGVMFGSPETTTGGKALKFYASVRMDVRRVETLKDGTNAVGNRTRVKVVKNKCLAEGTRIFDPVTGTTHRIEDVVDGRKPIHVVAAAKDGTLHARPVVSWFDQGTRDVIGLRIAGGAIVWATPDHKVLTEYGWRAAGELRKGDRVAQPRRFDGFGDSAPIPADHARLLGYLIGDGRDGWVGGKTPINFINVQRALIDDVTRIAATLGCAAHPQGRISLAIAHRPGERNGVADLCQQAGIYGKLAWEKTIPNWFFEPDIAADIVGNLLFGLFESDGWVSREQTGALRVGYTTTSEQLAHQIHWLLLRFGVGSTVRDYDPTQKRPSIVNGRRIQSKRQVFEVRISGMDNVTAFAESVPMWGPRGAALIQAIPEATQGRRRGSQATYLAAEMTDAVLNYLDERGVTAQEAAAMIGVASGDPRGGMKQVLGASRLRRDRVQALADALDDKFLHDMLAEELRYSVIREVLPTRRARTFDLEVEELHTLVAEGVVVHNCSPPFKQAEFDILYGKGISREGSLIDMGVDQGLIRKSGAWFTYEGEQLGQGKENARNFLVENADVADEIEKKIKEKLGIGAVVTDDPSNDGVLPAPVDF

[8] = reduction of Shn3 3'UTR-driven luciferase in osteoblasts – cell-based, Clone20 osteoblasts, firefly luciferase, cherry-picked, dose response (AID 624132); type: functional;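 further: firefly luciferase luminescence from reporter carrying the Shn3 3'UTR in osteoblasts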
[9] = loss of viability in HepG2 cells – cell-based, CellTiter-Glo, cherry-picked, cytotoxicity control for Shn3 inhibitor project, dose response (AID 624134); type: functional
[10] = non-specific 3'UTR reporter inhibition in Clone20-Shn3RL – cell-based, Renilla luciferase, cherry-picked, counter-screen for Shn3 inhibitor project, dose response (AID 624133); type: functional
[11] = blockers of HIV-1 ZM109 envelope-driven cell-cell fusion – HeLa effector, CEM target cells, luciferase, cherry-pick, dose response (AID 652058); type: functional, cell-based;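 further: luciferase signal from HIV-1 Env mediated cell-cell fusion of effector and target cells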
[12] = HIV-1 AD8 envelope cell-cell fusion blockers – cherry-pick, dose response (AID 652062); type: functional, cell-based;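 further: luciferase signal from cell-cell fusion driven by HIV-1 clade B AD8 Env; potency is for inhibitors of fusion seen as a drop in luminescence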
BJ [13] = experiment: BJ-TERT fibroblast viability loss – cell-based, RAS-independent, luminescence, dose response (AID 1933); type: functional; settings: Homo sapiens
BJ [14] = experiment: cells; type: functional, cell-based; settings: Homo sapiens
BJ [15] = experiment: BJ-TERT-LT-ST fibroblast viability loss – cell-based, RAS-independent, luminescence, dose response (AID 1935); type: functional; settings: Homo sapiens;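 further: BJ fibroblasts immortalized with TERT plus LT and ST oncogenes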
[16] = DRD fibroblast viability loss – cell-based, non-viral oncogenic, luminescence, dose response (AID 1934); type: functional; settings: Homo sapiens
INS1 = experiment: INS-1E survival protection against cytokine death – cell-based, luminescence, retest, dose response (AID 449756); type: functional; settings: Rattus norvegicus;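 further: cell death triggered by IL-1 beta plus TNF-alpha plus IFN-gamma mixture; protective hits raise ATP signal compared with cytokine alone wells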
[17] = blockers of HIV-1 envelope-mediated cell-cell fusion – cherry-pick, dose response (AID 652057); type: functional, cell-based

T1 sequence (P11940 whole entry, the tested form may be a part): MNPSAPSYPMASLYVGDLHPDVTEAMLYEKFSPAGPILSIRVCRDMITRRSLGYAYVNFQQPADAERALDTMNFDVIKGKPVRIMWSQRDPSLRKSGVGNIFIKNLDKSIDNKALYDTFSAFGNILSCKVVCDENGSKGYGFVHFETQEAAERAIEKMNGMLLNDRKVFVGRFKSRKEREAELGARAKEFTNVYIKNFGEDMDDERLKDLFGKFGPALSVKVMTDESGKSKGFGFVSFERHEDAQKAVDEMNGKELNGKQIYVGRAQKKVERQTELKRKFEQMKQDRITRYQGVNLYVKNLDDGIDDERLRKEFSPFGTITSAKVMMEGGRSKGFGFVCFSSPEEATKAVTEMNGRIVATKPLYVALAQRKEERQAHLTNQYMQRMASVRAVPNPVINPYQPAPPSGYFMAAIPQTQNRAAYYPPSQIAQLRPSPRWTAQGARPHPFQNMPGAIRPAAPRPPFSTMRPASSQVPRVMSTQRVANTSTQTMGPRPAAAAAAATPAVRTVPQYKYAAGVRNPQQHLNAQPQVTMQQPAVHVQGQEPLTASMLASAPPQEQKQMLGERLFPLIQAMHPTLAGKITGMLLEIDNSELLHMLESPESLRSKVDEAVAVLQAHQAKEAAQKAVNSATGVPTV
Sequence of FAD-linked sulfhydryl oxidase ALR (P55789 whole entry): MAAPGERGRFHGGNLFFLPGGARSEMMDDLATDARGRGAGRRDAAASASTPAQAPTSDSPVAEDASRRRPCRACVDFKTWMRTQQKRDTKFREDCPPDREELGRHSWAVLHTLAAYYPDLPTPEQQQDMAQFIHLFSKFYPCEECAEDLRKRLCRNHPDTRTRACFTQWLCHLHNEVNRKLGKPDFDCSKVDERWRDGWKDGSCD

Row | Compound | IC50 [1] | IC50 [2] | EC50 [4] | EC50 [5] | other results
1 | NS(=O)(=O)c1cccc2c1c([N+](=O)[O-])cc1nc(O)c(O)nc12 | > 66 µM (inactive) | > 66 µM (inactive) | – | – | –
2 | Cc1ccccc1NC(=O)c1ccc(F)c(S(=O)(=O)NCC2CCCO2)c1 (stereo not given) | – | – | – | – | IC50 [3]: 12.3 µM (active)
3 | COC(=O)c1cccc(-n2c(CCC(=O)O)ccc2-c2cccs2)c1 | – | – | > 300 µM (not active) | > 300 µM (not active) | –
4 | COc1cc2[nH]c(=S)n(NC(=O)c3ccccc3)c(=O)c2cc1OC | > 66 µM (inactive) | > 66 µM (inactive) | – | – | –
5 | Cc1nnc(Sc2nc3ccccc3o2)c2ccccc12 | – | – | – | – | AC50 [6]: 3.26 µM (active); AC50 [7]: 18.4 µM (active); IC50 [3]: 13.5 µM (active); EC50 (Protein RecA): 1.28 µM (active)
6 | COc1ccc(Cc2c(O)nc(SCC(=O)NC34CC5CC(CC(C5)C3)C4)nc2O)cc1 | > 66 µM (inactive) | > 66 µM (inactive) | – | – | –
7 | CC(C)(C)c1ccc(/C=C2\Oc3cc(O)ccc3C2=O)cc1 | – | – | 31.4 µM (active) | 28.8 µM (active) | –
8 | FC(F)(F)c1ccc2c(c1)C1C=CCC1C(c1ccncc1)N2 (stereo not given) | – | – | > 300 µM (not active) | > 300 µM (not active) | –
9 | O=S(=O)(NCc1csc(-c2cccs2)n1)c1cccc(C(F)(F)F)c1 | – | – | – | – | IC50 [3]: 14.5 µM (active)
10 | COc1ccccc1OCC(=O)c1[nH]c(C)c(C(C)=O)c1C | – | – | – | – | AC50 [8]: 3.35 µM (active); AC50 [9]: > 70 µM (inactive); AC50 [10]: 3.81 µM (active); AC50 [11]: 2.13 µM (active); AC50 [12]: 46.4 µM (active)
11 | N#CC(C#N)=C(Nc1ccc(F)cc1)SCc1cccc(F)c1 | – | – | – | – | EC50 (BJ [13]): 13.1 µM (active); EC50 (BJ [14]): 33.2 µM (active); EC50 (BJ [15]): > 150 µM (inconclusive); EC50 [16]: 29.3 µM (active); IC50 [3]: 4.79 µM (active); AC50 (INS1): 3.26 µM (active)
12 | O=C1CC(c2ccccc2)CC(=O)C1Sc1ccc(Cl)cc1 (stereo not given) | > 66 µM (inactive) | > 66 µM (inactive) | – | – | –
13 | Cc1nnc(NC(=O)C2c3ccccc3Oc3ccccc32)s1 | > 66 µM (inactive) | > 66 µM (inactive) | – | – | –
14 | Cc1ccc(C(N)=S)c(C)c1 | > 66 µM (inactive) | > 66 µM (inactive) | – | – | –
15 | O=C1NC(=O)N(CCc2ccc(F)cc2)C(=O)/C1=C/NCCCn1ccnc1 | – | – | > 300 µM (not active) | > 300 µM (not active) | –
16 | N#CC1=C(N)OC2=C(C(=O)CCC2)C1c1ccc(OC(=O)N2CCOCC2)cc1 (stereo not given) | – | – | > 300 µM (not active) | > 300 µM (not active) | –
17 | O=C(Cn1ncc2c3ccccc3n(Cc3ccccc3)c2c1=O)NCCCN1CCCC1 | – | – | – | – | IC50 [3]: 13.2 µM (active)
18 | Cn1c(=O)c2nc(COc3ccccc3)[nH]c2n(C)c1=O | 33.5 µM (inactive) | 29.7 µM (inactive) | – | – | –
19 | CCCN(CC(=O)Nc1ccc(F)c(F)c1F)C(=O)Cn1c(=O)cnc2ccccc21 | – | – | – | – | IC50 [3]: 12.3 µM (active)
20 | Cc1cccn2c(=O)c3cc(C#N)/c(=N\C(=O)c4cccs4)n(CCCOC(C)C)c3nc12 | – | – | 141 µM (inconclusive) | > 300 µM (not active) | –
21 | CO[C@@H](CN(C)S(=O)(=O)c1ccc(Cl)cc1)[C@@H](C)CN([C@H](C)CO)S(=O)(=O)c1cccc(Cl)c1 | – | – | – | – | AC50 [17]: 1.25 µM (active); AC50 [11]: 1.1 µM (active); AC50 [12]: 19.5 µM (active)
22 | C/C(=N\NC(=O)c1nnn(-c2nonc2N)c1-c1cccs1)c1cccc(O)c1 | – | – | > 300 µM (not active) | > 300 µM (not active) | –
